Read-outs that look alike come from different tables or passages of the source.
Columns and labels:
[1] = biological target: human TYK2 (JH2domain-pseudokinase) (Homo sapiens (Human), UniProt P29597); assay: TYK2 JH2 Domain Binding Assay (KINOMEscan)
In short: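 Pseudokinase domain binding was measured by qPCR of tagged, bead-retained kinase after 1 h room-temperature competition, with 0.9% DMSO and compound up to 30,000 nM in 3-fold steps. Hill-equation Kd, duplicate.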

JAK2 kinase domain (JH1) = JAK2 kinase domain (JH1) (Homo sapiens (Human), UniProt O60674); assay: JAK2 Radioactive Kinase Assay; format: biochemical; settings: for inhibition at 10 µM: read-out: JAK2 JH1% Inhibition @ 10 μM
Sequence of JAK2 kinase domain (JH1) (O60674 849-1124): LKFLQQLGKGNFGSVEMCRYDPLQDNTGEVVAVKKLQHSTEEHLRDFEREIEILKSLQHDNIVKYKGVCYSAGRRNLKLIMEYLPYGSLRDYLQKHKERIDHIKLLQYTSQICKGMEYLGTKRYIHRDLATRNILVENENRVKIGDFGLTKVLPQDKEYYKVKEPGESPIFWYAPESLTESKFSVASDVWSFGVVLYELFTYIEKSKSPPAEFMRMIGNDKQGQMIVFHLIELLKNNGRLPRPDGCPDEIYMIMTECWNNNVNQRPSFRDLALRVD
In short: (§1)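 Compounds were tested at a single concentration of 10 μM in a radiometric kinase format against each isolated kinase domain. Activity is reported as percent inhibition at that concentration.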

Tyk2 kinase domain (DH1) = Tyk2 kinase domain (DH1) (Homo sapiens (Human), UniProt P29597); assay: Tyk2 Radioactive Kinase Assay; format: biochemical; settings: for inhibition at 10 µM: read-out: Tyk2 JH1% Inhibition @ 10 μM
Sequence of Tyk2 kinase domain (DH1) (P29597 897-1176): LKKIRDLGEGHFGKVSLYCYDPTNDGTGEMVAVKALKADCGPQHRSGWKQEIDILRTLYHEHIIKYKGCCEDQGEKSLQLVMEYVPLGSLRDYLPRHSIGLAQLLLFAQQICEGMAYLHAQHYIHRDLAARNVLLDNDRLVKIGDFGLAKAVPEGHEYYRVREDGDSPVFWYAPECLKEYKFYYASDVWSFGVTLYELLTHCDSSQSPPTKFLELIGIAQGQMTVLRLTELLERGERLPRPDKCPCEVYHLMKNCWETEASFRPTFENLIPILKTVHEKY
In short: as §1

Sequence of human TYK2 (JH2domain-pseudokinase) (P29597 556-888): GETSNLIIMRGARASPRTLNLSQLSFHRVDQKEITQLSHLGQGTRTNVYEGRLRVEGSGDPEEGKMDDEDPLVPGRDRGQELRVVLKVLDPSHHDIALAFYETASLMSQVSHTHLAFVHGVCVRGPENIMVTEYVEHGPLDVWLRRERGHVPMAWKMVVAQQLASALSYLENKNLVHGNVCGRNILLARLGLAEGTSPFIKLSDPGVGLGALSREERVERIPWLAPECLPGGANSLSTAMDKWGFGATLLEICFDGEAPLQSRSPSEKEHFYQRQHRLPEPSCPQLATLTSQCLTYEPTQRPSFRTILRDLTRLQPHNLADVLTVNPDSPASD

Kd [1] [nM]	inhibition at 10 µM (JAK2 kinase domain (JH1); compound at 10 μM, ATP 10 μM) [%]	inhibition at 10 µM (Tyk2 kinase domain (DH1); compound at 10 μM, ATP 10 μM) [%]	inhibition at 10 µM (JAK2 kinase domain (JH1); 10 μM compound, 10 μM ATP) [%]	inhibition at 10 µM (Tyk2 kinase domain (DH1); 10 μM compound, 10 μM ATP) [%]	SMILES	JAK2 JH1% Inhibition @ 10 μM (JAK2 kinase domain (JH1); compound at 10 μM, ATP 10 μM)	Tyk2 JH1% Inhibition @ 10 μM (Tyk2 kinase domain (DH1); compound at 10 μM, ATP 10 μM)
< 0.2	< 50	< 50	–	–	CNc1cc(Nc2cccn([C@H]3CC[C@@H](N4CCOCC4)CC3)c2=O)nc2c(C(=O)N[C@H]3C[C@H]3F)cnn12 [I-304]	–	–
< 0.2	–	–	< 50	< 50	CNc1cc(Nc2cc(Cl)cn([C@@H]3CCCN(C)C3)c2=O)nc2c(C(=O)N[C@@H]3C[C@@H]3F)cnn12 [I-853]	–	–
0.2 to 1	–	–	–	–	CNc1cc(Nc2cccn([C@H]3CCC[C@@H]3OC)c2=O)nc2c(C(=O)NC3CC3)cnn12 [I-437]	A (percent inhibition at 10 μM lower than 50)	A (percent inhibition at 10 μM lower than 50)
1 to 10	< 50	< 50	–	–	Cc1c(Nc2cccnc2OC(C)C)nc2c(C(=O)NC3CCC3)cnn2c1N [I-208, 7-amino-N-cyclobutyl-5-((2-isopropoxypyridin-3-yl)amino)-6-methyl pyrazolo[1,5-a]pyrimidine-3-carboxamide]	–	–
0.2 to 1	< 50	< 50	–	–	CNc1cc(-c2nn(CCN3CCN(C)CC3)c3ncccc23)nc2c(C(=O)N[C@H]3C[C@H]3F)cnn12 [I-480]	–	–
< 0.2	< 50	< 50	–	–	CNc1cc(Nc2cccnc2OC)nc2c(C(=O)NC[C@@H](C)CO)cnn12 [I-484]	–	–
1 to 10	< 50	< 50	–	–	COc1ncccc1Nc1cc(NCCN2CCOCC2)n2ncc(C(=O)NC3CC3)c2n1 [I-387, N-cyclopropyl-5-((2-methoxypyridin-3-yl)amino)-7-((2-morpholinoethyl)amino)pyrazolo[1,5-a]pyrimidine-3-carboxamide]	–	–
0.2 to 1	–	–	< 50	< 50	CNc1cc(Nc2cccn([C@H]3CCCC[C@H]3OC)c2=O)nc2c(C(=O)NC3CC3)cnn12 [I-1044]	–	–
0.2 to 1	–	–	< 50	< 50	CNc1cc(Nc2cccn([C@H]3CCC[C@@H](OC)C3)c2=O)nc2c(C(=O)NCC(C)(C)CO)cnn12 [I-950]	–	–
< 0.2	< 50	< 50	–	–	CNc1cc(Nc2cccn([C@@H]3CCCC[C@@H]3O)c2=O)nc2c(C(=O)NC3CC3)cnn12 [I-671]	–	–
0.2 to 1	< 50	< 50	–	–	CNc1cc(Nc2cccc(N3CCCC3)n2)nc2c(C(=O)N[C@H]3C[C@H]3F)cnn12 [I-383]	–	–
< 0.2	< 50	< 50	–	–	CNc1cc(Nc2cccn(-c3ncc(OC)cc3F)c2=O)nc2c(C(=O)NC3CC3)cnn12 [I-672]	–	–
1 to 10	< 50	< 50	–	–	CNc1cc(Nc2cc(C)nc(N3CC[C@@H](O)C3)c2)nc2c(C(N)=O)cnn12 [I-60]	–	–
< 0.2	< 50	< 50	–	–	CNc1cc(Nc2cccn(-c3ccc(N4CCOCC4)cc3)c2=O)nc2c(C(N)=O)cnn12 [I-10]	–	–
< 0.2	< 50	< 50	–	–	CNc1cc(Nc2cccn(-c3cnn(CC4CCOC4)c3)c2=O)nc2c(C(=O)NC3CC3)cnn12 (stereo not drawn) [I-444]	–	–
< 0.2	< 50	< 50	–	–	CNc1cc(Nc2cccn([C@H]3CCCN(C)C3)c2=O)nc2c(C(=O)N[C@@H]3C[C@@H]3F)cnn12 [I-535]	–	–
0.2 to 1	< 50	< 50	–	–	CNc1cc(Nc2cccn(-c3cc(C)nn3C)c2=O)nc2c(C(=O)NC3CC3)cnn12 [I-340]	–	–
0.2 to 1	< 50	< 50	–	–	[2H]C([2H])([2H])Oc1ncccc1Nc1cc(NC)n2ncc(C(=O)NC(C)(C)C#N)c2n1 [I-493, N-(2-cyanopropan-2-yl)-5-((2-(methoxy-d3)pyridin-3-yl)amino)-7-(methylamino)pyrazolo[1,5-a]pyrimidine-3-carboxamide]	–	–
1 to 10	< 50	< 50	–	–	CNc1cc(Nc2cccnc2OC2CC2)nc2c(C(=O)NCCC(C)(C)O)cnn12 [I-422, 5-((2-cyclopropoxypyridin-3-yl)amino)-N-(3-hydroxy-3-methylbutyl)-7-(methylamino)pyrazolo[1,5-a]pyrimidine-3-carboxamide]	–	–
1 to 10	–	–	< 50	< 50	CNc1cc(Nc2cccn(-c3cccnc3C)c2=O)nc2c(C(=O)NCC(C)(C)CO)cnn12 [I-850]	–	–

Kd [1] [nM]	inhibition at 10 µM (JAK2 kinase domain (JH1); compound at 10 μM, ATP 10 μM) [%]	inhibition at 10 µM (Tyk2 kinase domain (DH1); compound at 10 μM, ATP 10 μM) [%]	inhibition at 10 µM (JAK2 kinase domain (JH1); 10 μM compound, 10 μM ATP) [%]	inhibition at 10 µM (Tyk2 kinase domain (DH1); 10 μM compound, 10 μM ATP) [%]	SMILES	JAK2 JH1% Inhibition @ 10 μM (JAK2 kinase domain (JH1); compound at 10 μM, ATP 10 μM)	Tyk2 JH1% Inhibition @ 10 μM (Tyk2 kinase domain (DH1); compound at 10 μM, ATP 10 μM)
0.2 to 1	< 50	< 50	–	–	CNc1cc(Nc2cccn(-c3nc(C)c(C)s3)c2=O)nc2c(C(=O)NC3CC3)cnn12 [I-291]	–	–
0.2 to 1	< 50	< 50	–	–	CNc1cc(Nc2cccn(CCOC3CC3)c2=O)nc2c(C(=O)NC3CC3)cnn12 [I-453]	–	–
0.2 to 1	< 50	< 50	–	–	CNc1cc(-c2nn(C(C)C)c3ncccc23)nc2c(C(=O)NC3CC3)cnn12 [I-440]	–	–
< 0.2	< 50	< 50	–	–	CNc1cc(Nc2cccn([C@H]3CCCOC3)c2=O)nc2c(C(=O)N[C@H]3CC[C@H]3O)cnn12 [I-745]	–	–
0.2 to 1	< 50	< 50	–	–	CNc1cc(-c2cnn(-c3ccccc3)c2)nc2c(C(N)=O)cnn12 [I-44]	–	–
0.2 to 1	< 50	< 50	–	–	CNc1cc(Nc2cccnc2OC2CC2)nc2c(C(=O)N[C@H]3[C@@H]4COC[C@@H]43)cnn12 [I-446]	–	–
1 to 10	< 50	< 50	–	–	CNc1cc(Nc2cc(C)c(=O)n(-c3cnn(C)c3)c2)nc2c(C(N)=O)cnn12 [I-287, 5-((5-methyl-1-(1-methyl-1H-pyrazol-4-yl)-6-oxo-1,6-dihydropyridin-3-yl)amino)-7-(methylamino)pyrazolo[1,5-a]pyrimidine-3-carboxamide]	–	–
1 to 10	–	–	< 50	< 50	CNc1cc(Nc2cccc3ocnc23)nc2c(C(=O)N[C@H]3CC[C@@H]3OC)cnn12 [I-1115]	–	–
< 0.2	–	–	< 50	< 50	CNc1cc(Nc2cc(Cl)cn(C3CCN(C)CC3)c2=O)nc2c(C(=O)N[C@H]3CC[C@H]3O)cnn12 [I-1006]	–	–
< 0.2	–	–	< 50	< 50	CNc1cc(Nc2cccn(C(C)C)c2=O)nc2c(C(=O)N[C@H]3CCC[C@H](O)C3)cnn12 [I-1078]	–	–
0.2 to 1	–	–	< 50	< 50	CNc1cc(Nc2cccn([C@H]3CCN(CCF)C3)c2=O)nc2c(C(=O)NC3CC3)cnn12 [I-932]	–	–
< 0.2	–	–	< 50	< 50	CNc1cc(Nc2cccn(-c3cccc(F)c3)c2=O)nc2c(C(=O)NC[C@@H](C)CO)cnn12 [I-1033]	–	–
0.2 to 1	< 50	< 50	–	–	CNc1cc(Nc2cccnc2C(C)(F)F)nc2c(C(=O)N[C@H]3C[C@H]3F)cnn12 [I-300]	–	–
< 0.2	< 50	< 50	–	–	CNc1cc(Nc2cccn([C@H]3CCCOC3)c2=O)nc2c(C(=O)NCC3(CO)CC3)cnn12 [I-699]	–	–
0.2 to 1	–	–	< 50	< 50	CNc1cc(Nc2cccn(-c3cccc(F)c3)c2=O)nc2c(C(=O)N[C@@H]3CC[C@@H]3O)cnn12 [I-1005]	–	–
1 to 10	< 50	< 50	–	–	[2H]C([2H])([2H])Oc1ncccc1Nc1cc(NC)n2ncc(C(=O)NCCC3CCCO3)c2n1 (stereo not drawn) [I-419, 5-((2-(methoxy-d3)pyridin-3-yl)amino)-7-(methylamino)-N-(2-(tetrahydrofuran-2-yl)ethyl)pyrazolo[1,5-a]pyrimidine-3-carboxamide]	–	–
0.2 to 1	< 50	< 50	–	–	CNc1cc(Nc2cccnc2OC)nc2c(C(=O)N[C@H]3CCC[C@@H]3O)cnn12 [I-449, (S)—N-((1S,2S)-2-hydroxycyclopentyl)-5-((2-methoxypyridin-3-yl)amino)-7-(methylamino) pyrazolo[1,5-a]pyrimidine-3-carboxamide]	–	–
0.2 to 1	< 50	< 50	–	–	CNc1cc(-c2cn(C(C)C)c3ncccc23)nc2c(C(=O)NCC(C)(C)CO)cnn12 [I-588, N-(3-hydroxy-2,2-dimethylpropyl)-5-(1-isopropyl-1H-pyrrolo[2,3-b]pyridin-3-yl)-7-(methylamino)pyrazolo[1,5-a]pyrimidine-3-carboxamide]	–	–
1 to 10	< 50	< 50	–	–	CO[C@H]1C[C@H](Oc2ncc(Cl)cc2Nc2cc(N)n3ncc(C(N)=O)c3n2)C1 [I-119]	–	–
< 0.2	< 50	< 50	–	–	CNc1cc(Nc2cccn([C@@H]3C[C@H]3F)c2=O)nc2c(C(=O)NC3CC3)cnn12 [I-788]	–	–
